Laboratory results: PMC4823750, “Enoyl-CoA hydratase mediates polyhydroxyalkanoate mobilization in Haloferax mediterranei” (Scientific Reports, 2016)

Assays:
[1] = target: T1, PhaJ1 (PhaJ1-His6; HFX_5217) (Haloferax mediterranei, UniProt A0ACN4YM66); assay: HPLC of dehydration product; assay type: biochemical; conditions: 0.25 mM racemic 3HB-CoA; 2 M KCl, 100 mM Tris-HCl pH 7.5, 5 mM MgCl2, 45 °C, 30 min
T1 construct: gene maoC; N-terminal His6 tag kept; 219 residues (native); expressed from pTA05-phaJ1 in Haloferax volcanii H1424, Ni-agarose purified
T1 sequence (A0ACN4YM66 entry or part of it): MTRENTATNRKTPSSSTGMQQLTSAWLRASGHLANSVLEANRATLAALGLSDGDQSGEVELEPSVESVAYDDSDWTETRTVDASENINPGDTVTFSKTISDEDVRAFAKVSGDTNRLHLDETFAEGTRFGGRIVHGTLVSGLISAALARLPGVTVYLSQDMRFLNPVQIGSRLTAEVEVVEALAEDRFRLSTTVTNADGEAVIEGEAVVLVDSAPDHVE

[2] = target: T1, PhaJ1 (PhaJ1-His6; HFX_5217); assay: HPLC of hydration product; assay type: biochemical; conditions: 0.25 mM crotonyl-CoA; 2 M KCl, 100 mM Tris-HCl pH 7.5, 5 mM MgCl2, 45 °C, 30 min

SMILES | HPLC of dehydration product [1] | HPLC of hydration product [2]
CC(O)CC(=O)SCCNC(=O)CCNC(=O)[C@H](O)C(C)(C)COP(=O)(O)OP(=O)(O)OC[C@H]1O[C@@H](n2cnc3c(N)ncnc32)[C@H](O)[C@@H]1OP(=O)(O)O (some centres unmarked) [3-hydroxybutyryl-CoA] | minor 3HB-CoA was converted into crotonyl-CoA by PhaJ1 | 
C/C=C/C(=O)SCCNC(=O)CCNC(=O)[C@H](O)C(C)(C)COP(=O)(O)OP(=O)(O)OC[C@H]1O[C@@H](n2cnc3c(N)ncnc32)[C@H](O)[C@@H]1OP(=O)(O)O [crotonyl-CoA] |  | major crotonyl-CoA was converted into 3HB-CoA by PhaJ1
